Laboratory results published in publication PMC4035770 (Pharmaceuticals, 2014).

Assays:
[1] = biological target: T1, Serotonin transporter (SERT) (Homo sapiens, UniProt P31645)
[2] = Microsomal metabolic stability screen, pooled human intestinal microsomes (HIM); format: in vitro ADME; settings: 10 µM prodrug, 0.02 mg/mL HIM, NADPH regenerating system, 37 °C, 60 min, n = 2; LOD 0.1 ng/mL
Procedure: Human intestinal microsome (HIM) stock solution preparation. HIM (0.2 mL) stock was added to PBS solution (9.8 mL). Final concentration; 0.2 mg/mL.
(§1) Microsomes, NADPH regenerating solutions A and B were thawed rapidly to 37 °C, then kept on wet ice until ready for use. A stock solution of the prodrug (5 mM) was prepared in ACN. To a 1.7 mL microcentrifuge tube in a 37 °C water bath was added the phosphate buffered saline solution (349 µL), the NADPH regenerating solution A (50 µL), the NADPH regenerating solution B (50 µL), and the prodrug solution (1 µL). After incubation for 5 min, microsome solution (50 µL) was added and the metabolism was initiated. The tube was vortex mixed. The final concentrations in this solution was 10 µM prodrug, 0.1 mg/mL HLM or 0.02 mg/mL HIM, 1.3 mM NADP^+, 0.4 U/mL glucose-6-phosphate dehydrogenase and 0.2% organic solvent. This solution was incubated for 60 min at 37 °C. The reaction was quenched by addition of acetonitrile (500 µL). The mixture was centrifuged at 10,000 × g for 10 min. The supernatant was analyzed by LC-MS analysis.
The intestinal cells contain cytochome P450 enzymes, flavin monoxygenases, esterases and UDP glucuroyl transferases. Condition III involved the use of pooled human intestinal microsomes (HIM) in order to simulate the potential metabolism that occurs during absorption and passage through the intestinal wall.

Nicotinic acetylcholine = assay: Pharmacological screen, nicotinic acetylcholine receptor binding
Procedure: 2.4. Plasma LLOQ/Precision […]
of 10 ng/mL. […] ACN (200 µL) […]
was added and the solution was vortex mixed. The remaining mixture was centrifuged at 10,000 rpm […]
The final concentration was 1 ng/mL. […]
signal to noise ratio of three.
2.6. Brain LLOQ Accuracy/Precision
Aliquots (5 × 200 µL) were […]
transferred to 1.5 mL microcentrifuge tubes.
ACN (300 µL) was added and […]
the solution was vortex mixed. […] 200 µL
The solution was vortex mixed again and analysed by HPLC. Final concentrations were 12.5, 125 ng/mL.
2.7. Pharmacological Screening of N-Methyl Bupropion and Bupropion […]
nicotinic acetylcholine receptor [5,6] and SERT [7,8]. The specific nicotinic acetylcholine assays are […]
and nicotinic acetylcholine α7 [12].
3. Results Method Validation […]
diluent solutions separately.

[3] = Aqueous pH stability profile at 40 °C
[4] = Screening incubation in USP simulated intestinal fluid (SIF); settings: incubation 37 °C, one hour, n = 2; <LOD = bupropion, its metabolites or other prodrugs not detected; LOD 0.1 ng/mL
Procedure: USP simulated intestinal fluid preparation. Monobasic potassium phosphate (0.068 g) was dissolved in 2.5 mL of water and mixed. Sodium hydroxide (0.77 mL of 0.2 M) and water (5.0 mL) were added. Pancreatin (0.1 g) was added and the pH adjusted with either 0.2 M sodium hydroxide or 0.2 M hydrochloric acid to a pH of 6.8 ± 0.1. The solution was diluted to 10 mL with water.
(§2) Pepsin is most efficient at cleaving peptide bonds between hydrophobic and aromatic amino acids such as phenylalanine, tryptophan and tyrosine. In order to simulate the pH and digestive enzymes of the stomach, USP simulated gastric fluid (SGF) was used. Conditions in the intestine were simulated using USP simulated intestinal fluid (SIF).
(§3) One hour metabolism or hydrolysis was considered to be sufficient time to generate detectable levels of metabolites, bearing in mind the likely exposure time in vivo. A blank media was used in each analysis to subtract a background from each LC-MS sample chromatogram. A t0 sample was also used to identify impurities related to each prodrug.
(§4) After one hour incubation of each compound in the selected media, the mixture was quenched with acetonitrile and the sample was centrifuged to remove precipitated proteins. The supernatant solution was analyzed immediately by LC-MS using data dependent acquisition analysis.
(§5) This transformation is commonly used to assess activity of oxidative enzyme CYP2B6 in human liver and intestinal microsomes. […] It was important to report if any of the other prodrugs were detected if for instance a possible multistep-prodrug was found.

[5] = Michaelis-Menten kinetics of bupropion formation in pooled human liver microsomes; format: in vitro ADME; settings: pooled HLM 0.1 mg/mL, substrate 1–500 µM, 20 min, 37 °C, n = 6
Procedure: Microsomes, NADPH regenerating solutions A and B were thawed rapidly to 37 °C, and then kept on ice until ready for use. Substrate solutions were prepared (1–500 µM) where the maximum concentration of DMSO was 1%, and the concentration of microsomes, NADPH regenerating solution B and phosphate buffer was fixed. After incubation for 5 min, NADPH regenerating solution A was added and the metabolism was initiated. Final volume was 100 μL. The tube was inverted twice and vortex mixed. The final concentrations of prodrug in this solution was 1–500 µM, HLM (0.1 mg/mL) or HIM (0.02 mg/mL), NADP^+ (1.3 mM), glucose-6-phosphate dehydrogenase (0.4 U/mL) and 1.0% DMSO. This solution was incubated for 20 min at 37 °C. The reaction was quenched by addition of 100 µL of acetonitrile. The mixture was centrifuged at 10,000 × g for 10 min. The supernatant was analyzed by LC-MS analysis.

[6] = Microsomal metabolic stability screen, pooled human liver microsomes (HLM); format: in vitro ADME; settings: 10 µM prodrug, 0.1 mg/mL HLM, NADPH regenerating system, 37 °C, 60 min, n = 2; LOD 0.1 ng/mL
Procedure: Human liver microsome (HLM) stock solution preparation. HLM (0.5 mL) stock was added to PBS solution (9.5 mL). Final concentration; 1 mg/mL. The PBS solution was prepared by addition of one USP PBS tablet (Sigma-Aldrich catalogue number P4417) dissolved in 200 mL deionised water.
as §1
After passing through the intestinal membrane into the portal circulation the prodrug quickly enters the liver. This metabolic condition was simulated in the present work by using pooled human liver microsomes (HLM).

[7] = Screening incubation in pooled human plasma (PHP); format: in vitro ADME; settings: incubation 37 °C, one hour, n = 2; <LOD = bupropion, its metabolites or other prodrugs not detected; LOD 0.1 ng/mL
Description: Pooled human plasma solution preparation. Citrated human plasma was pooled together from three separate donors.
Finally, pooled human plasma (PHP) was used to evaluate the prodrug stability/activation in blood since the plasma fraction contains much of the hydrolase activity in blood.

[8] = biological target: T1, Serotonin transporter (SERT); assay: biochemical
[9] = Screening incubation in USP simulated gastric fluid (SGF); settings: incubation 37 °C, one hour, n = 2; <LOD = bupropion, its metabolites or other prodrugs not detected; LOD 0.1 ng/mL
Procedure: USP simulated gastric fluid preparation. Sodium chloride (0.02 g) and purified pepsin (0.032 g) that is derived from porcine stomach mucosa with an activity of 800 to 2,500 units per mg of protein were dissolved in 0.07 mL of concentrated hydrochloric acid and sufficient water to make 10 mL.
as §2, §3, §4, §5

[10] = biological target: T2, Dopamine active transporter (DAT) (Homo sapiens, UniProt Q01959); assay: Pharmacological screen, dopamine transporter; format: binding
T2 construct: MDS Pharma Services Taiwan
T2 sequence (Q01959 whole entry): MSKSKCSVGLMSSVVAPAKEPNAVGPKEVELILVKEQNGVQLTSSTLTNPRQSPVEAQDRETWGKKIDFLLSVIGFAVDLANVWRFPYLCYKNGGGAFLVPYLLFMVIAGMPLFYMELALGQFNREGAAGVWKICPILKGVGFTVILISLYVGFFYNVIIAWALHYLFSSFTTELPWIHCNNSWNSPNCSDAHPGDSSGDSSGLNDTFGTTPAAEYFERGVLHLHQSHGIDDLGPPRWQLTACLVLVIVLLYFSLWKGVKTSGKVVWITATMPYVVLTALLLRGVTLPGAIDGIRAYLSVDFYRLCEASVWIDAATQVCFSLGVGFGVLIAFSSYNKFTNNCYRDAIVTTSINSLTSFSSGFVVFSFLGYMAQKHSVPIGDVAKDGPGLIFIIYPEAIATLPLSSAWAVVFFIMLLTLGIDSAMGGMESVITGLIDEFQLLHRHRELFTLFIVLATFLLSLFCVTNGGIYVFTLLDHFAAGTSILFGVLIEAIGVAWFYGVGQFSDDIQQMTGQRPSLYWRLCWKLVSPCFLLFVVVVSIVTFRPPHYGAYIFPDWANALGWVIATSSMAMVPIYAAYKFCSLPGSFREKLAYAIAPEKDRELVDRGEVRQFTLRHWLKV

[11] = biological target: T3, Norepinephrine transporter (NET) (Homo sapiens, UniProt P23975); assay: Pharmacological screen, norepinephrine transporter; format: binding
T3 construct: MDS Pharma Services Taiwan
T3 sequence (P23975 whole entry): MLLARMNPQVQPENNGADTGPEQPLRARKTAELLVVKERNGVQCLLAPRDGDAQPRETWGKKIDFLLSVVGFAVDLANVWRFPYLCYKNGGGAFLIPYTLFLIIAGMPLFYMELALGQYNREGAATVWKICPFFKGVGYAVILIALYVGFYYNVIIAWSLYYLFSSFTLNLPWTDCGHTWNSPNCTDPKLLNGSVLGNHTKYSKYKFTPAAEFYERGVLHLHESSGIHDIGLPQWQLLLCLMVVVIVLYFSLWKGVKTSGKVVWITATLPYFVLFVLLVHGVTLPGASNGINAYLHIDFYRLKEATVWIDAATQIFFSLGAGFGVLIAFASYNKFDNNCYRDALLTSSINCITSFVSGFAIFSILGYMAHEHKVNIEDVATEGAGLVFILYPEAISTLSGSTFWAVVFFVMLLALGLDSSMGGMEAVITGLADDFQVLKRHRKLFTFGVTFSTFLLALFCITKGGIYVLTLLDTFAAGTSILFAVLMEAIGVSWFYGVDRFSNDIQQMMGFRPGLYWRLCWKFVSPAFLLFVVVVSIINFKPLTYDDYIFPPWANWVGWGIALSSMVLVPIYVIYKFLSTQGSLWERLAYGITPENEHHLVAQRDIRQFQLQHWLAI

[12] = biological target: Muscarinic non -selective, central; assay: Pharmacological screen, muscarinic receptor binding

T1 sequence (P31645 whole entry): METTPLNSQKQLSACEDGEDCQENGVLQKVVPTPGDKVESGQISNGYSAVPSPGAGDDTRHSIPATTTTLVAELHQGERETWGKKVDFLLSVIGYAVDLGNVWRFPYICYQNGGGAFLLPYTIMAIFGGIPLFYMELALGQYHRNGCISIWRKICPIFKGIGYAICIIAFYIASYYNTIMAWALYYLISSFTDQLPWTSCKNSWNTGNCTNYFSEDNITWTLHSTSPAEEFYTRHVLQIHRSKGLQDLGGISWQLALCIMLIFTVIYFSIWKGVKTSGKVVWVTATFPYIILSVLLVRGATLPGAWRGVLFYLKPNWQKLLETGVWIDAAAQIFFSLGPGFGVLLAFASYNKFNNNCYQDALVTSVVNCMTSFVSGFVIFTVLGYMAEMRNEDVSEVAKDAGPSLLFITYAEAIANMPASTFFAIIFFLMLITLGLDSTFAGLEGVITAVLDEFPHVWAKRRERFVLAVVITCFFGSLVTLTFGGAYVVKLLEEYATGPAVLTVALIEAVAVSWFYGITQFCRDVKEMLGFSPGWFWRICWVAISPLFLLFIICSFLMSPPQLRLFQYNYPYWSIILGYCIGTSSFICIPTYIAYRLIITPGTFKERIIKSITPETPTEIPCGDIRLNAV

## CC(C(=O)c1cccc(Cl)c1)N(C)C(C)(C)C (racemic) [Compound 4, Rac-N-methyl bupropion]
[1]
  effect on the serotonin transporter system, in words: little effect
[2]
  Primary product detected in media HIM: bupropion was detected
Nicotinic acetylcholine; Nicotinic acetylcholine
  IC50: 71.6 µM
Nicotinic acetylcholine; Nicotinic acetylcholine, Cheng and Prusoff
  Ki: 49.2 µM
Nicotinic acetylcholine; compared with bupropion
  activity at the nicotinic acetylcholine receptors, in words: more active than bupropion
[3]; above pH 5
  aqueous degradation rate above pH 5: degraded faster than bupropion
[3]; above pH 12
  aqueous degradation rate above pH 12: rate of degradation decreased quite dramatically
[3]; below pH 5
  aqueous stability / degradation rate below pH 5: stable
[4]
  Primary product detected in media SIF: <LOD
[5]
  Vmax of bupropion formation: 900.4 ± 73.8 pmol/min/mg HLM
[5]; listed as N-methylbupropion
  Vmax of bupropion formation: 900.4 ± 74 pmol/min/mg HLM
[6]
  Primary product detected in media HLM: bupropion was detected
[7]
  Primary product detected in media PHP: <LOD
[8]
  IC50: > 100 µM
[9]
  Primary product detected in media SGF: <LOD
[10]
  IC50: 3.71 µM
  Ki: 2.95 µM
[10]; DAT
  nH (Hill coefficient): 0.924
[10]; compared with bupropion
  activity as dopamine reuptake inhibitor, in words: less active than bupropion
[11]
  IC50: 57.9 µM
  Ki: 54.4 µM
[11]; NET
  nH (Hill coefficient): 0.764
[11]; compared with bupropion
  activity as norepinephrine reuptake inhibitor, in words: less active than bupropion
[12]
  IC50: 39.3 µM
[12]; Cheng and Prusoff
  Ki: 12.3 µM
